According to US11110168B2, “Nanoparticles, controlled-release dosage forms, and methods for delivering an immunotherapeutic agent” (NORTH CAROLINA STATE UNIVERSITY, priority 2016, dated 2021):

B1: cDNCs (with CpG, without cutting sites): control DNA nano-cocoon with CpG, without HhaI cutting sites (nucleic acid)
chain: ATATGTCGTCGTTCGAACGACGTTATATAACGTCGTTCGAACGACGTTATATGTCGTCGTTCGAACGACGTT
modifications: listed as DNA, chemistry not fully specified; the letters are possibly those of the target site

What was measured:
[1] = In vivo retention and biodistribution after MN administration in mice bearing B16F10 melanoma; design: species or system mouse; details: for Cy5.5 signal around the melanoma site (retention): MN administration, imaging day 1, day 3, day 5
Description: HA-NPs formulation with conjugated 1-MT and encapsulated aPD1 can improve their physicochemical properties. Therefore, the in vivo kinetics of free aPD1/1-MT and NPs following MN administration were evaluated in the mice model bearing B16F10 melanoma. The drug retention capability was tested at the tumor site after the MN administration. In vivo […] imaging was conducted at day 1, day 3 and day 5 post injection of the MN loaded with aPD1 and Cy5.5-1-MT-HA or free Cy5.5-1-MT. […] A similar pattern was observed compared to the biodistribution at the tumor site and other organs in the control group. […] The sustained high concentrations of the drugs within tumor regions as well as in peripheral circulation would enhance the immune system capability to treat not only primary tumor but also metastatic tumors in the body.
For the fluorescent NPs, Cyanine5.5 NHS ester (Lumiprobe, Cy5.5) was covalently coupled to the primary amines of the aPD1 and 1-MT. The Cy5.5 was dissolved in anhydrous DMSO immediately before use, at a concentration of 10 mg/ml. Cy5.5 and 1-MT reacted at optimal ratio of 5:1. For the conjugation with aPD1, 40 μg Cy5.5 per mg of antibody was mixed immediately. The tube was wrapped in foil and incubated at room temperature for 1 hour. The unreacted Cy5.5 was removed and the aPD1 was exchanged by gel filtration using Sephadex G-25M.

[2] = tested on: restriction enzyme HhaI; assay: Digestion of DNCs by restriction enzyme HhaI, gel electrophoresis; assay type: biochemical; details: treated with HhaI
Description: Release studies were performed at 37° C. with constant agitation in PBS+10% fetal ovine serum. PBS, MMP-9 (500 ng/mL, Sigma) or Lipase (10 000 U, Sigma) were added to samples to study the DNA and antibody release. The DNA disintegration was analyzed by agarose gel electrophoresis using 1% (w/v) agarose gel and the antibody release was determined by IgG total ELISA kit (eBioscience).
Two different control DNCs (cDNC) with a non-specific sequence were synthesized (Table 1) to verify the design.
As shown in agarose gels (FIG. 7), without HhaI treatment, these cDNCs cannot migrate in the gel as DNCs.

Row | Molecule | Cy5.5 signal around the melanoma site (retention) [1] | biodistribution in the tumor and the major organs ([1]; Cy5.5-labeled 1-MT after MN administration) | cleavage by HhaI (gel electrophoresis) [2]
1 | 1-methyl-DL-tryptophan [1-MT] | little signal could be detected | – | –
2 | Cn1cc(CC(N)C(=O)O)c2ccccc21 (racemic) [1-MT, 1-methyl-DL-tryptophan] | quickly cleaved from the patch and eliminated by the body within one day | highest accumulations in the tumor followed by the lung and liver | –
3 | cDNC (with cutting sites, without CpG): control DNA nano-cocoon with HhaI cutting sites, without CpG (GTATTATTTCGAAATAATTTGTATTATT; 5' phosphate, chemistry not fully specified; the letters are possibly those of the target site) | – | – | readily cut into smaller homogeneous fragments
4 | B1 | – | – | resistant to cleavage by HhaI
